# Values of other authors, collected in publication PMC5050400 (Current Neuropharmacology, 2016).
# How the values were obtained:
# β3(Y143W) receptor = conditions: β3(Y143W) homomeric receptor compared with wild-type; cited from earlier work
# α1β2γ2L GABAA receptors = conditions: compared with propofol; cited from earlier work
Structure (SMILES),activation of the mutant receptor (β3(Y143W) receptor),degree of potentiation (α1β2γ2L GABAA receptors)
"Cc1cccc(C)c1O [2,6-dimethylphenol]",unchanged,–
CC(C)c1ccccc1O [2-isopropylphenol],unchanged,–
"CC(C)c1ccc(C2(C(F)(F)F)N=N2)cc1O [meta-azipropofol, 2-isopropyl-5-[3-(trifluoromethyl)-3H-diazirin-3-yl]phenol]",–,somewhat smaller degree of potentiation
